Results on two compounds are retold here after patent US20230226034A1, “PROPHYLACTIC OR THERAPEUTIC AGENT FOR PHOTODERMATOSIS” (MITSUBISHI TANABE PHARMA CORPORATION, priority 2020, published 2023).

Assay [1] has as its system Male C57BL/6JHamSlc-Ay/+ mice. Kind of assay: Effect on darkening of mouse body hair. The assay is classed as in vivo. As to conditions: day 6. As for the experimental part: Male C57BL/6JHamSlc-Ay/+ mice (Japan SLC, Inc.) were used. The test was performed with 29- or 30-days old mice, in order to use each individual whose hair cycle was at the anagen stage. The hair on the back of each of the mice was shaved with a clipper before the starting of administration, and any individual with no bad conditions such as nicks and maculae on the skin was selected, and subjected to grouping based on a group configuration shown in Table 3 by performing a simulation method so that the body weights in respective groups were uniform. Administration (also including preparation) of the test substance and evaluation of body hair were performed separately by respective different experimenters, and such evaluation was performed in a blinded manner. The starting date of administration was set to day 0, and the test substance was administered once daily for 6 days (day 0 to day 5).
The compound was orally administered at a volume of 0.1 mL/10 g (body weight).
NDP-αMSH (control drug): a required amount of compound was weighed as free-form equivalent, and dissolved in Dulbecco's phosphate-buffered saline (PBS) at a concentration of 0.4 mg/mL. The drug was subcutaneously administered at a volume of 0.05 mL/10 g (body weight).
Evaluation and sampling were performed on day 6. The mice were euthanized by cervical dislocation, thereafter subjected to hair shaving of each back with a clipper, and each individual was rated as positive (+) or negative (−) by the degree of darkening of body hair.
A statistical analysis was performed by SAS, and the significance level was 0.05. A 0.5% MC administration group and an NDP-αMSH group were analyzed by Fisher's exact probability test. […] The fixed-order test was performed by Fisher's exact probability test from a higher dose, and, if significant, performing analysis at a lower dose.

Assay [2] concerns tyrosinase-related protein 1 (TYRP1). Kind of assay: Expression of melanin-related gene TYRP1 in skin, clinical trial in healthy subjects. To be noted: back skin mRNA, next day versus day before administration. The assay is classed as in vivo, human.
In assay [3] the test system is premelanosome protein (PMEL). Nature of the assay: Expression of melanin-related gene PMEL in skin, clinical trial in healthy subjects. It counts as in vivo, human. As to conditions: back skin mRNA, next day versus day before administration.
The next assay deals with skin of healthy subjects. As to conditions: FIG. 2.
In assay [4] the test system is Mouse melanoma derived cell line B16F1 cells. Kind of assay: Melanin production assay in mouse melanoma cell line.
Experimental: The following procedure was used to evaluate the effect of a MC1R agonist on melanin production from mouse melanoma cell lines.
Mouse melanoma derived cell line B16F1 cells were used in measurement of melanin production. B16F1 cells were cultured by using Dulbecco's Modified Eagle Medium (DMEM) containing 10% fetal bovine serum (FBS) and 100 U/mL Penicillin-Streptomycin.
One experiment was performed in triplicate, and three independent experiments were performed.
In consideration of the correspondence of each experiment, the difference in % value from a negative control was determined by performing a two-way Dunnett's test based on each group and the number of experiments as factors. The significance level here was 5% on both sides. Such analysis was performed with SAS.
Assay [5] deals with Male albino hairless mice (Hos:HR-1). Kind of assay: UV-A irradiated mouse photoaging model: skin wrinkles by visual observation. The assay is classed as in vivo. To be noted: 3 mg/kg once daily for 8 weeks (compound B oral, HP-228 intraperitoneal); score 0 to 3; FIG. 3. From the text:
(§1) Male albino hairless mice (strain name: Hos:HR-1, Hoshino Laboratory Animals Inc.) were used. The mice were divided into groups so that the body weight of each group was homogenous, and from the next day, the dorsal skin of the mice was irradiated with an incremental amount of ultraviolet A at the frequency of five times a week for 8 weeks to induce photoaging in the groups other than the untreated group. The UV-A irradiation schedule was based on the report by Minami et al. (J Nutrition Biochem 2009, 20, 389).
(§2) Compound B: The required amount was weighed as free-form equivalent, and suspended in 0.5% MC to achieve the target concentration, and orally administered at a volume of 0.1 mL/10 g (body weight) at 3 mg/kg once daily for 8 weeks.
(§3) HP-228 (reference control, melanocortin receptor-activating peptide): The required amount of free-form was weighed and dissolved in PBS to achieve the target concentration. 0.1 mL/10 g (body weight) was injected intraperitoneally at 3 mg/kg once daily for 8 weeks.
Evaluation of skin wrinkles by visual observation (evaluation item a): The state of skin wrinkles was evaluated on a four-step scale from score 0 (fine wrinkles) to 3 (deep and coarse wrinkles) at a frequency of once a week for 8 weeks after UV-A irradiation.
The skin wrinkle score was tested by Mann-Whitney's U test adjusted for multiplicity, and the significance level was set at 0.05. […]

The test system of another assay is type I collagen. Nature of the assay: UV-A irradiated mouse photoaging model: type I collagen content in the skin. It counts as in vivo. As to conditions: 3 mg/kg once daily for 8 weeks (compound B oral, HP-228 intraperitoneal); FIG. 4.
Source text: as §1, §2, §3
Quantification of type I collagen content in the skin (evaluation item b): Mice were euthanized 8 weeks after UV-A irradiation, and their back skin was collected. Homogenates were prepared by adding acetic acid and pepsin to the collected skin. The amount of collagen in the skin homogenate, which was reduced by UV-A, was measured using the Mouse Collagen Type I ELISA Kit. […]

In assay [6] the test system is cyclobutane pyrimidine dimer (CPD). Kind of assay: UV-A irradiated mouse photoaging model: skin histology, CPD immunostaining. The assay is classed as in vivo.
Source text: as §1, §2, §3
Skin histological examination (endpoint c): Skin samples were fixed in 10% neutral buffered formalin and paraffin sections were prepared. DNA damage induced by UV-A was detected by enzyme-antibody immunostaining using anti-cyclobutane pyrimidine dimer (CPD) antibody (Cosmo Bio).

The mark [7] stands for this setting: 0.003 mg/kg p.o. once daily for 6 days.
[8] abbreviates: 0.03 mg/kg p.o. once daily for 6 days.
Setting [9] is: 0.3 mg/kg p.o. once daily for 6 days.
[10] abbreviates: 3 mg/kg p.o. once daily for 6 days.
[11] abbreviates: grade + (Slight), dorsal skin, UVA irradiated, 10 animals, 3 mg/kg for 8 weeks.
The mark [12] stands for this setting: grade ± (Minimal), dorsal skin, UVA irradiated, 10 animals, 3 mg/kg for 8 weeks.

The EC50 is the concentration that produces a half-maximal response.

Molecules are shown by their SMILES. Marks after values point to notes of the source that are not given here.

Consider `COC[C@H]1CN(C(=O)[C@]2(F)CN(C3CCCC3)C[C@H]2c2ccc(OC)cc2)C[C@@H]1c1ccc(C(F)(F)F)cc1N1CCC(C(=O)O)CC1` [Compound A, Cocrystal of 1-{2-[(3S,4R)-1-{[(3R,4R)-1-cyclopentyl-3-fluoro-4-(4-methoxyphenyl)pyrrolidin-3-yl]carbonyl}-4-(methoxymethyl)pyrrolidin-3-yl]-5-(trifluoromethyl)phenyl}piperidine-4-carboxylic acid with phosphoric acid], for which the “Number of mice Negative (darkening of body hair)” value in assay [1] (setting [7]) came out at 7; in assay [1] (setting [8]) it was 7; in assay [1] (setting [9]), 0; in assay [1] (setting [10]), 0. In addition, the “Number of mice Positive (darkening of body hair)” value in assay [1] (setting [7]) is 0; in assay [1] (setting [8]), 0; in assay [1] (setting [9]) it was 7**; in assay [1] (setting [10]), 7**. Also, the “TYRP1 Rate of changes (times)” value in assay [2] (30 mg single oral dose) is 1.3 times; in assay [2] (100 mg single oral dose) it was 1.37 times; in assay [2] (300 mg single oral dose), 2.14 times; in assay [2] (600 mg single oral dose), 2.65 times. Moreover, the “PMEL Rate of changes (times)” value in assay [3] (30 mg single oral dose) is given as 1.22 times; in assay [3] (100 mg single oral dose), 1.77 times; in assay [3] (300 mg single oral dose) it was 2.49 times; in assay [3] (600 mg single oral dose), 3.54 times. In addition, the “increase in melanin density of the skin” value in the assay on skin of healthy subjects (450 mg orally once daily for 14 days, subjects Fitzpatrick Type V) is reported as “no increase in melanin density”. Also, the “increase in melanin density of the skin: time of maximum” value with skin of healthy subjects (150 and 300 mg orally once daily for 14 days) is recorded as “maximum on day 15”. For the same compound, the melanin production entry in assay [4] (B16F1 cells, 3 days, FIG. 1) was “induced melanin production in a concentration-dependent manner”. The EC50 in assay [4] (Mus musculus, B16-F1, 72 h, read-out: EC50 value, melanin production) is 0.013 nM.
Turning to `CCO[C@H]1CC[C@H](N2C[C@@H](c3ccc(OC)cc3)[C@](OC)(C(=O)N3C[C@H](c4ccc(C(F)(F)F)cc4N4CCC(C(=O)O)CC4)C[C@H]3COC)C2)CC1.Cl.Cl` (relative stereo) [Compound B, 1-{2-[(3S,5S)-1-[(3R,4R)-1-(trans-4-ethoxycyclohexyl)-3-methoxy-4-(4-methoxyphenyl)pyrrolidin-3-yl]carbonyl}-5-(methoxymethyl)pyrrolidin-3-yl]-5-(trifluoromethyl)phenyl piperidine-4-carboxylic acid, 2 hydrochloride], in assay [5], the skin wrinkle scores entry is on record as “lower or tended to be lower than those of the vehicle control group”. In the assay on type I collagen, the “amount of type I collagen in the skin” value is on record as “significantly higher than that of the vehicle control group”. Besides, the “Epidermal CPD staining” value in assay [6] (3 mg/kg once daily for 8 weeks (compound B oral, HP-228 intraperitoneal)) was “tended to be less positive than in the vehicle control group”. In assay [6] (setting [11]), the “Number of animals, CPDs immunostaining, Cells in dermis, grading +” value stood at 10; the “Number of animals, CPDs immunostaining, Epidermis (cell nuclei), grading +” value is reported as 1; the “Number of animals, CPDs immunostaining, Hair follicles in dermis (cell nuclei), grading +” value stood at 1; the “Number of animals, CPDs immunostaining, Sebaceous glands (cell nuclei), grading +” value came to 9. Moreover, in assay [6] (grade ++ (Moderate), dorsal skin, UVA irradiated, 10 animals, 3 mg/kg for 8 weeks), the “Number of animals, CPDs immunostaining, Epidermis (cell nuclei), grading ++” value turned out to be 6. The “Number of animals, CPDs immunostaining, Epidermis (cell nuclei), grading +++” value in assay [6] (grade +++ (Severe), dorsal skin, UVA irradiated, 10 animals, 3 mg/kg for 8 weeks) was determined as 3. In assay [6] (setting [12]), the “Number of animals, CPDs immunostaining, Hair follicles in dermis (cell nuclei), grading ±” value is 9; the “Number of animals, CPDs immunostaining, Other tissues (incl. cytoplasm in sebaceous glands), grading ±” value amounted to 10; the “Number of animals, CPDs immunostaining, Sebaceous glands (cell nuclei), grading ±” value was found to be 1.
